Data on 14 molecules can be found in US9289429B2, “Compounds and methods for inhibiting phosphate transport” (Ardelyx, Inc., priority 2010, dated 2016).

A value given as a limit tells only on which side of the number the result lay.

The target in data set [1] is T1, rat NaP2b (SLC34A2) (Rattus norvegicus, UniProt Q9JJ09).
T1 construct: host or cells: HEK293
T1 sequence (Q9JJ09 1-695): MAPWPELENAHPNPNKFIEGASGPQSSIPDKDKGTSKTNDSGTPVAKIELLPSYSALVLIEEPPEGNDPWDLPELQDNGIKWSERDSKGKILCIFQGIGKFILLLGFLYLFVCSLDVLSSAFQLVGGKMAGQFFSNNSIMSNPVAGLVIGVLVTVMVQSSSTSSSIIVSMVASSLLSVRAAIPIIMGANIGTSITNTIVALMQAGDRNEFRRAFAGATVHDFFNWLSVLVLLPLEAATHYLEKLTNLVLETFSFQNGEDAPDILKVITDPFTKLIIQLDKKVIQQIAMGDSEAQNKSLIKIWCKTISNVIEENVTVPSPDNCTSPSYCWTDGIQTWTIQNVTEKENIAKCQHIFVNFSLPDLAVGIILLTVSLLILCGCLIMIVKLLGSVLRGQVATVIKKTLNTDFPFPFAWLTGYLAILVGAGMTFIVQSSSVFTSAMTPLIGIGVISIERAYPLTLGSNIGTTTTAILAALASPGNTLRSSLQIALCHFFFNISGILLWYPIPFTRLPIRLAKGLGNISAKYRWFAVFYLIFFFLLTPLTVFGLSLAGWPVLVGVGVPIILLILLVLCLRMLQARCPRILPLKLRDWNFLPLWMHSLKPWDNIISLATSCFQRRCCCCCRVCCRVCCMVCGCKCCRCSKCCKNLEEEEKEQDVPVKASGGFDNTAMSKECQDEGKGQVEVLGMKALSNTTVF
The data set can be described thus: NaP2b-mediated Pi transport (33P uptake) in transfected HEK293 cells, rat transporter. Type of data set: cell-based. To be noted: HEK293 cells transfected with rat NaP2b, 33P phosphate uptake, 100 uM KH2PO4; read-out: pIC50 range for rat Nap2b (converted). The procedure: (§1) HEK293 cells were obtained from the American Type Culture collection and propagated per their instructions. Expression clones for rat and human NaP2b (SLC34A2) were obtained from Open Biosystems (Catalog numbers MRN1768-9510282, and MHS1010-99823026, respectively). The sequence of the human protein was mutated to insert a threonine after residue 37, and to introduce a N39D mutation.
(§2) The rate of phosphate (Pi) uptake into HEK293 cells was measured using a modification of the method described by Mohrmann et al. (Mohrmann, I., Mohrmann, M., Biber, J., and Murer, H. (1986) Am. J. Phys. 250(3 Pt 1):G323-30.) Transfected HEK293 cells were treated with a pharmacological agent to minimize endogenous PiT-mediated phosphate transport activity, such that the only remaining sodium-dependent phosphate transport activity is that which was bestowed by introduction of the NaP2b genes.
(§3) Cells were seeded into 96-well plates at 25,000 cells/well and cultured overnight. Lipofectamine 2000 (Invitrogen) was used to introduce the NaP2b cDNA, and the cells were allowed to approach confluence during a second overnight incubation. […] Cells were then overlayed with either choline uptake buffer or sodium uptake buffer (14 mM Tris, 137 mM sodium chloride, 5.4 mM KCl, 2.8 mM CaCl2, 1.2 mM MgSO4, 100 uM KH2PO4, PiT-silencing agent, 1 mg/mL Bovine Serum Albumin, pH 7.4) containing 6-9 uCi/mL ^33P orthophosphoric acid (Perkin Elmer) and test compound. Each compound was tested at twelve concentrations ranging from 0.1 nM to 30 uM. Assays were run in duplicate.
(§4) After incubation for 3-30 minutes at room temperature, assay mixtures were removed, and the cells were washed twice with ice cold stop solution (137 mM sodium chloride, 14 mM Tris, pH 7.4). Cells were lysed by addition of 20 μL 0.1% Tween 80 followed by 100 μL scintillation fluid, and counted using a TopCount (Perkin Elmer).
(§5) pIC50 (the negative log of the IC50) values of the test compounds were calculated using GraphPad Prism.

The target of data set [2] is T2, human NaP2b (SLC34A2) (Homo sapiens, UniProt O95436).
T2 construct: host or cells: HEK293
T2 sequence (O95436 1-690): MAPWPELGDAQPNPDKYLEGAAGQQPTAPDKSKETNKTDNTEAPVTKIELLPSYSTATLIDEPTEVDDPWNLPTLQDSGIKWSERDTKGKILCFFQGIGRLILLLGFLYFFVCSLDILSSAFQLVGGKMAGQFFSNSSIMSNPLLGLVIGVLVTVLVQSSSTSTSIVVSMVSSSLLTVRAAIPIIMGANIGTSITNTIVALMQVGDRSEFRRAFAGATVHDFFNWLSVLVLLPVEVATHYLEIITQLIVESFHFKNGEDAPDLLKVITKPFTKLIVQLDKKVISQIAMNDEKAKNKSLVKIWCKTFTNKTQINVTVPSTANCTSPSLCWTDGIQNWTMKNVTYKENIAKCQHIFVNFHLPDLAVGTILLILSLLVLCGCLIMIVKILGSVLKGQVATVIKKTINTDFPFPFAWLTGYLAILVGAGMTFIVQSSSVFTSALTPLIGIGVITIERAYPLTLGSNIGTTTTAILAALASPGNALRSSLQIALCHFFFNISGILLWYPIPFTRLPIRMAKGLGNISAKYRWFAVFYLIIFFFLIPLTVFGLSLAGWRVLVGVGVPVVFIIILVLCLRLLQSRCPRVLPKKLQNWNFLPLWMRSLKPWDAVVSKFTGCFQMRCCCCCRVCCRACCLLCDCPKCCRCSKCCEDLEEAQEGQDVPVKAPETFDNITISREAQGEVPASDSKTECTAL
Put plainly: NaP2b-mediated Pi transport (33P uptake) in transfected HEK293 cells, human transporter. The data set is classed as cell-based. The note with it: HEK293 cells transfected with human NaP2b (Thr inserted after residue 37, N39D), 33P phosphate uptake, 100 uM KH2PO4; read-out: pIC50 range for human Nap2b (converted). The procedure: as §1, §2, §3, §4, §5

The target of data set [3] is T3, NaPi2b (Rattus norvegicus, UniProt Q9JJ09).
T3 construct: host or cells: HEK293
T3 sequence (Q9JJ09 1-695): T1 sequence (Q9JJ09 1-695)
The data set can be described thus: Competition with phosphate: Pi transport assay repeated at 2.1 vs 0.1 mM phosphate. Type of data set: cell-based. The note with it: potency for inhibition of NaPi2b at 2.1 vs 0.1 mM phosphate. The procedure:
To ascertain if an inhibitor was competitive for binding with phosphate, the procedure was repeated, but raising the concentration of the substrate in the assay mixture from 0.1 to 2.1 mM phosphate.

Data set [4] can be described thus: Stability in simulated gastric and intestinal fluid. The data set is classed as in vitro ADME. To be noted: incubation 6 hr, 1-20 μM. The procedure:
Test compounds were incubated at 1-20 μM in simulated gastric fluid (SGF; standard USP solution with 3 mg/mL pepsin) or simulated intestinal fluid (SIF; standard USP solution with 3 mg/mL pancreatin) for 3 hr or 6 hr. HPLC-UV or HPLC-MS were used to determine test compound levels using peak area %. Results (Table 5) were reported as the percentage of test compound remaining after incubation in a given condition relative to test compound present at t=0 in the same condition.

Turning to `O=C(NCCOCCO)c1cccc(C(=O)Nc2ccc(N3CCCCC3)cc2C(=O)Nc2cnc(-c3cccc(C(F)(F)F)c3)cn2)c1` [Example 6, N1-(2-(2-Hydroxyethoxy)ethyl)-N3-(4-(piperidin-1-yl)-2-((5-(3-(trifluoromethyl)phenyl)pyrazin-2-yl)carbamoyl)phenyl)isophthalamide], the IC50 in data set [1] was 10 to 31.6 µM.

As to `CN(CCN1CCOCC1)C(=O)c1cccc(C(=O)Nc2ccc(N3CCCCC3)cc2C(=O)Nc2cnc(-c3cccc(C(F)(F)F)c3)nc2)c1` [Example 10, N1-Methyl-N1-(2-morpholinoethyl)-N3-(4-(piperidin-1-yl)-2-((2-(3-(trifluoromethyl)phenyl)pyrimidin-5-yl)carbamoyl)phenyl)isophthalamide], the IC50 in data set [1] and in data set [2] was less than 1 µM in each case. Besides, the “Competitive with respect to Pi?” value in data set [3] was “No”.

Regarding `O=C(O)P(=O)(O)O` [PFA, reference compound], in data set [3], the “Competitive with respect to Pi?” value was “Yes”.

Regarding `O=C(NCCOCCO)c1cccc(C(=O)Nc2ccc(N3CCCCC3)cc2C(=O)Nc2ncc(-c3cccc(C(F)(F)F)c3)cn2)c1` [Example 8], in data set [1], the IC50 was 10 to 31.6 µM.

`CCN(CC)CCN(C)Cc1cccc(C(=O)Nc2ccc(N3CCCCC3)cc2C(=O)Nc2ncc(-c3cccc(C(F)(F)F)c3)cn2)c1` [Example 9, 2-(3-(((2-(Diethylamino)ethyl)(methyl)amino)methyl)benzamido)-5-(piperidin-1-yl)-N-(5-(3-(trifluoromethyl)phenyl)pyrimidin-2-yl)benzamide]: the IC50 in data set [1] is 10 to 31.6 µM.

On to `Cc1ccc(-c2cnc(NC(=O)c3cc(N4CCCCC4)ccc3NC(=O)c3cccc(CSCCC(=O)O)c3)cn2)cc1C` [Example 1, 3-((3-((2-((5-(3,4-Dimethylphenyl)pyrazin-2-yl)carbamoyl)-4-(piperidin-1-yl)phenyl)carbamoyl)benzyl)thio)propanoic acid], for which the IC50 in data set [1] was 1 to 7.94 µM.

Consider `CN(CCOCCOCCOCCC(=O)O)C(=O)c1cccc(C(=O)Nc2ccc(N3CCCCC3)cc2C(=O)Nc2cnc(-c3ccccc3)nc2)c1` [Example 15, 2-Methyl-1-oxo-1-(3-((2-((2-phenylpyrimidin-5-yl)carbamoyl)-4-(piperidin-1-yl)phenyl)carbamoyl)phenyl)-5,8,11-trioxa-2-azatetradecan-14-oic acid], for which the IC50 in data set [1] is 1 to 7.94 µM. Moreover, the “% remaining, SGF” value in data set [4] (simulated gastric fluid with 3 mg/mL pepsin) is given as 97%. The “% remaining, SIF” value in data set [4] (simulated intestinal fluid with 3 mg/mL pancreatin) is 98%.

Turning to `O=C(O)c1cccc(SCc2cccc(C(=O)Nc3ccc(N4CCCCC4)cc3C(=O)Nc3cnc(-c4ccccc4)nc3)c2)c1` [Example 3, 3-((3-((2-((2-Phenylpyrimidin-5-yl)carbamoyl)-4-(piperidin-1-yl)phenyl)carbamoyl)benzyl)thio)benzoic acid], the IC50 in data set [1] is 1 to 7.94 µM.

In the case of `Cc1ccc(-c2cnc(NC(=O)c3cc(N4CCCCC4)ccc3NC(=O)c3cccc(C(=O)NCCOCCO)c3)nc2)cc1C` [Example 16, N1-(2-((5-(3,4-Dimethylphenyl)pyrimidin-2-yl)carbamoyl)-4-(piperidin-1-yl)phenyl)-N3-(2-(2-hydroxyethoxy)ethyl)isophthalamide], the IC50 in data set [1] is 10 to 31.6 µM.

`O=C(O)CCOCCOCCOCCNC(=O)Cc1cccc(SCc2cccc(C(=O)Nc3ccc(N4CCCCC4)cc3C(=O)Nc3ncc(-c4ccccc4)cn3)c2)c1` [Example 17, 2-Oxo-1-(3-((3-((2-((5-phenylpyrimidin-2-yl)carbamoyl)-4-(piperidin-1-yl)phenyl)carbamoyl)benzyl)thio)phenyl)-6,9,12-trioxa-3-azapentadecan-15-oic acid]: the IC50 in data set [1] and in data set [2] was 1 to 7.94 µM in each case.

In the case of `Cc1ccc(-c2cnc(NC(=O)c3cc(N4CCCCC4)ccc3NC(=O)c3cccc(CSCCC(=O)O)c3)nc2)cc1C` [Example 13, 3-(3-(2-(5-(3,4-dimethylphenyl)pyrimidin-2-ylcarbamoyl)-4-(piperidin-1-yl)phenylcarbamoyl)benzylthio)propanoic acid], the IC50 in data set [1] was 1 to 7.94 µM.

For `O=C(O)CCSCc1cccc(C(=O)Nc2ccc(N3CCCCC3)cc2C(=O)Nc2ncc(-c3cccc(C(F)(F)F)c3)cn2)c1` [Example 14, 3-((3-((4-(Piperidin-1-yl)-2-((5-(3-(trifluoromethyl)phenyl)pyrimidin-2-yl)carbamoyl)phenyl)carbamoyl)benzyl)thio)propanoic acid], the IC50 in data set [1] is 10 to 31.6 µM.

Consider `Cc1ccc(-c2cnc(NC(=O)c3cc(N4CCCCC4)ccc3NC(=O)c3cccc(C(=O)NCCOCCO)c3)cn2)cc1C` [Example 5, N1-(2-((5-(3,4-Dimethylphenyl)pyrazin-2-yl)carbamoyl)-4-(piperidin-1-yl)phenyl)-N3-(2-(2-hydroxyethoxy)ethyl)isophthalamide], for which the IC50 in data set [1] was 10 to 31.6 µM.

With `CCN(CC)CCN(C)Cc1cccc(C(=O)Nc2ccc(N3CCCCC3)cc2C(=O)Nc2ncc(-c3ccc(C)c(C)c3)cn2)c1` [Example 7, 2-(3-(((2-(Diethylamino)ethyl)(methyl)amino)methyl)benzamido)-N-(5-(3,4-dimethylphenyl)pyrimidin-2-yl)-5-(piperidin-1-yl)benzamide], the IC50 in data set [1] is 1 to 7.94 µM.
